What was measured:
[1] = target: T1, wild-type human cardiac sodium channel, hNav1.5 (Homo sapiens, UniProt Q14524); assay: Late INa screening assay (PatchXpress whole cell patch clamp); assay type: cell-based; conditions: compound at 10 uM; HEK293 hNav1.5; late INa generated with Tefluthrin or ATX II; read-out: Late INa 10 uM (percent block of late INa)
T1 construct: host or cells: HEK293
Method: The late sodium current (Late INa) and peak sodium current (Peak INa) assays were performed on an automated electrophysiology platform, PatchXpress 7000A (MDS Analytical Technologies, Sunnyvale, Calif.), using the whole cell patch clamp technique to measure currents through the cell membrane of up to 16 cells at a time. The assay used an HEK293 (human embryonic kidney) cell line heterologously expressing the wild-type human cardiac sodium channel, hNav1.5, purchased from Millipore (Billerica, Mass.). No beta subunits were coexpressed with the Na channel alpha subunit. Cells were maintained with standard tissue culture procedures, and stable channel expression was maintained with 400 μg/ml Geneticin in the culture medium. Cells isolated for use on PatchXpress were incubated for 5 minutes in Versene 1× and then for 2 minutes in 0.0125% Trypsin-EDTA (both at 37° C.) to ensure that 80-90% of the cells are single and not part of a cell cluster. Experiments were carried out at 24-27° C.
For both the Late INa and Peak INa assays, series resistance compensation was set to 50% and whole-cell compensation was performed automatically. Currents were low-pass filtered at 10 kHz and digitized at 31.25 kHz. Currents through open sodium channels were automatically recorded and stored in the DataXpress2 database (MDS Analytical Technologies, Sunnyvale, Calif.). Analysis was performed using DataXpress2 analysis software and data are compiled in Excel.
Compound stocks were routinely made in glass vials to 10 mM in dimethyl sulfoxide (DMSO). In some cases, when compounds were not soluble in DMSO, they are made in 100% ethanol. Stocks were sonicated as necessary. The extracellular solution for screening Late INa was composed of: 140 mM NaCl, 4 mM KCl, 1.8 mM CaCl2, 0.75 mM MgCl2, and 5 mM HEPES with pH adjusted to 7.4 using NaOH. The extracellular solution for screening Peak INa was composed of: 20 mM NaCl, 120 mM N-methyl-D glucamine, 4 mM KCl, 1.8 mM CaCl2, 0.75 mM MgCl2, and 5 mM HEPES with pH adjusted to 7.4 using HCl. The intracellular solution used to perfuse the inside of the cells for both the Late INa and Peak INa assays contained: 120 mM CsF, 20 mM CsCl, 5 mM EGTA, 5 mM HEPES and pH adjusted to 7.4 with CsOH. Compounds were diluted in extracellular solution to […] in glass vials and then transferred to glass well plates before robotic addition to the cells. The 0Na extracellular solution used at the end of each experiment for the Late INa and Peak INa assays to measure baseline current contained: 140 mM N-methyl-D-glucamine; 4 mM KCl; 1.8 mM CaCl2; 0.75 mM MgCl2; 5 mM HEPES and pH was adjusted to 7.4 with HCl.
For the Late INa assay, sodium channels were activated every 10 seconds (0.1 Hz) by depolarizing the cell membrane to −20 mV for 250 milliseconds (ms) from a holding potential of −120 mV. In response to a −20 mV voltage step, typical Nav1.5 sodium currents activated rapidly to a peak negative current and then inactivated nearly completely within 3-4 ms.
All compounds were tested to determine their activity in blocking the late sodium current. Late INa current was generated by adding 10 μM Tefluthrin (pyrethroid) to the extracellular solution while recording Na currents. For some experiments, 50 nM ATX II (sea anemone toxin), another late INa activator, was used to generate the late component. Both activators generated late components that are large, and thus block of the late component by compounds could be measured easily. For the purposes of the screening, late INa is defined as the mean current between 225 ms and 250 ms after stepping to −20 mV to activate Na channels. After establishing the whole cell recording configuration, late INa activators were added to each well 4 times over a 16-17 minute period so that the late component of the Na current reached a stable value. Compounds were then added (typically at 10 μM), in the presence of late INa activator, with 3 additions over the course of 7 or 8 minutes. […]

hERG potassium channel = target: T2, hERG potassium channel (Homo sapiens, UniProt Q12809); assay: hERG screening assay (PatchXpress patch clamp, CHO cells); assay type: cell-based; conditions: CHO cells expressing hERG
T2 construct: expressed in transfected cells; host or cells: CHO (Chinese Hamster Ovary)
T2 sequence (Q12809 whole entry): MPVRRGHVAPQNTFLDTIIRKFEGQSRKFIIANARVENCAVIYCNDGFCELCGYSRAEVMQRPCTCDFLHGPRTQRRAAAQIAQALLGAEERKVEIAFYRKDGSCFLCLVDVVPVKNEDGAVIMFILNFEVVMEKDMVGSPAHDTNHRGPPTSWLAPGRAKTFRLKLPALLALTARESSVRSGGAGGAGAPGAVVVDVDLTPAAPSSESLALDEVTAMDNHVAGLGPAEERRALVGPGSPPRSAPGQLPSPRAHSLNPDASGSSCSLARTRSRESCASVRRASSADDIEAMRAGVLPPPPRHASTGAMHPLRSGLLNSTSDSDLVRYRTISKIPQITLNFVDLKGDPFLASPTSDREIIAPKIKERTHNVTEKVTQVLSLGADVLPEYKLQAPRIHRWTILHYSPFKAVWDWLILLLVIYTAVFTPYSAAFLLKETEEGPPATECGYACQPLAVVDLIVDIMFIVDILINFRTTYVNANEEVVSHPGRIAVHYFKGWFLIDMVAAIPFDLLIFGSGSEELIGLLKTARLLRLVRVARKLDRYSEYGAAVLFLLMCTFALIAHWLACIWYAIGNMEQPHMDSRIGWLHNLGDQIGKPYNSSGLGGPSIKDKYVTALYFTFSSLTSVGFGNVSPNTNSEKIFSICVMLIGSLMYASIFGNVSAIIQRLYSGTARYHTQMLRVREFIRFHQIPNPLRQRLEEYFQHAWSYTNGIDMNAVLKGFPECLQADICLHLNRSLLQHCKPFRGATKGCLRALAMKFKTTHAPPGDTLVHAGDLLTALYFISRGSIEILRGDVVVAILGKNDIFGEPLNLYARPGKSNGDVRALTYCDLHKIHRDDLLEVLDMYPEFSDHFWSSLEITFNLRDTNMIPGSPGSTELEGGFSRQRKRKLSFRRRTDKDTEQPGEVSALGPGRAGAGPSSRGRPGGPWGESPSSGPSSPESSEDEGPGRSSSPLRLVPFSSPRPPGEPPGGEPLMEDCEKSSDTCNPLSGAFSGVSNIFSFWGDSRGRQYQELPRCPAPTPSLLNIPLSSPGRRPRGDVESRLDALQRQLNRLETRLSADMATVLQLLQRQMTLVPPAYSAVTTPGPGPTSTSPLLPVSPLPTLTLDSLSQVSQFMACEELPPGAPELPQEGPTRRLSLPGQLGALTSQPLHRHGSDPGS
Method: Compounds were screened to test their activity in blocking the hERG potassium channel. The hERG channel is heterologously expressed in a CHO (Chinese Hamster Ovary) cell line. Cells were maintained with standard tissue culture procedures and stable channel expression was maintained with 500 μg/ml G418 in the culture medium. Cells were harvested for testing on the PatchXpress automated patch clamp with Accumax (Innovative Cell Technologies, San Diego, Calif.) to isolate single cells.
The following solutions were used for electrophysiological recordings. The external solution contained: 2 mM CaCl2; 2 mM MgCl2; 4 mM KCl; 150 mM NaCl; 10 mM Glucose; 10 mM HEPES (pH 7.4 with 1M NaOH, osmolarity). The internal solution contained: 140 mM KCl, 10 mM MgCl2, 6 mM EGTA, 5 mM HEPES, 5 mM ATP (pH adjusted to 7.25 with KOH).
hERG channels were activated when the voltage was stepped to +20 mV from the −80 mV holding potential. During a 5 second step at +20 mV, the channels activated and then largely inactivated, so the currents were relatively small. Upon returning to −50 mV from +20 mV, hERG currents transiently became much larger as inactivation was rapidly removed and then the channel closed. The first step to −50 mV for 300 ms was used as a baseline for measuring the peak amplitude during the step to −50 mV after channel activation. The peak current at −50 mV was measured both under control conditions and after addition of compound.
All compounds were prepared as 10 mM DMSO stocks in glass vials. Stock solutions were mixed by vigorous vortexing and sonication for about 2 minutes at room temperature. For testing, compounds were diluted in glass vials using an intermediate dilution step in pure DMSO and then further diluted to working concentrations in external solution. Dilutions were prepared no longer than 20 minutes before use.
After achieving the whole-cell configuration, cells were monitored for 90 seconds to assess stability and washed with external solution for 66 seconds. The voltage protocol described above was then applied to the cells every 12 seconds and throughout the whole procedure. Only cells with stable recording parameters and meeting specified health criteria were allowed to enter the compound addition procedure.
External solution containing 0.1% DMSO (vehicle) was applied to the cells first to establish the control peak current amplitude. After allowing the current to stabilize for […], 1 μM and then 10 μM test compounds were applied. Each compound concentration was added 4 times and cells were kept in test solution until the effect of the compound reached steady state or for a maximum of 12 minutes. After addition of test compound, a positive control (1 μM Cisapride) was added, and must block >95% of the current for the experiment to be considered valid. Washout in the external solution compartment was performed until the recovery of the current reached steady state. Data was analyzed using DataXpress, Clampfit (Molecular Devices, Inc., Sunnyvale) and Origin 7 (Originlab Corp.)

T1 sequence (Q14524 whole entry): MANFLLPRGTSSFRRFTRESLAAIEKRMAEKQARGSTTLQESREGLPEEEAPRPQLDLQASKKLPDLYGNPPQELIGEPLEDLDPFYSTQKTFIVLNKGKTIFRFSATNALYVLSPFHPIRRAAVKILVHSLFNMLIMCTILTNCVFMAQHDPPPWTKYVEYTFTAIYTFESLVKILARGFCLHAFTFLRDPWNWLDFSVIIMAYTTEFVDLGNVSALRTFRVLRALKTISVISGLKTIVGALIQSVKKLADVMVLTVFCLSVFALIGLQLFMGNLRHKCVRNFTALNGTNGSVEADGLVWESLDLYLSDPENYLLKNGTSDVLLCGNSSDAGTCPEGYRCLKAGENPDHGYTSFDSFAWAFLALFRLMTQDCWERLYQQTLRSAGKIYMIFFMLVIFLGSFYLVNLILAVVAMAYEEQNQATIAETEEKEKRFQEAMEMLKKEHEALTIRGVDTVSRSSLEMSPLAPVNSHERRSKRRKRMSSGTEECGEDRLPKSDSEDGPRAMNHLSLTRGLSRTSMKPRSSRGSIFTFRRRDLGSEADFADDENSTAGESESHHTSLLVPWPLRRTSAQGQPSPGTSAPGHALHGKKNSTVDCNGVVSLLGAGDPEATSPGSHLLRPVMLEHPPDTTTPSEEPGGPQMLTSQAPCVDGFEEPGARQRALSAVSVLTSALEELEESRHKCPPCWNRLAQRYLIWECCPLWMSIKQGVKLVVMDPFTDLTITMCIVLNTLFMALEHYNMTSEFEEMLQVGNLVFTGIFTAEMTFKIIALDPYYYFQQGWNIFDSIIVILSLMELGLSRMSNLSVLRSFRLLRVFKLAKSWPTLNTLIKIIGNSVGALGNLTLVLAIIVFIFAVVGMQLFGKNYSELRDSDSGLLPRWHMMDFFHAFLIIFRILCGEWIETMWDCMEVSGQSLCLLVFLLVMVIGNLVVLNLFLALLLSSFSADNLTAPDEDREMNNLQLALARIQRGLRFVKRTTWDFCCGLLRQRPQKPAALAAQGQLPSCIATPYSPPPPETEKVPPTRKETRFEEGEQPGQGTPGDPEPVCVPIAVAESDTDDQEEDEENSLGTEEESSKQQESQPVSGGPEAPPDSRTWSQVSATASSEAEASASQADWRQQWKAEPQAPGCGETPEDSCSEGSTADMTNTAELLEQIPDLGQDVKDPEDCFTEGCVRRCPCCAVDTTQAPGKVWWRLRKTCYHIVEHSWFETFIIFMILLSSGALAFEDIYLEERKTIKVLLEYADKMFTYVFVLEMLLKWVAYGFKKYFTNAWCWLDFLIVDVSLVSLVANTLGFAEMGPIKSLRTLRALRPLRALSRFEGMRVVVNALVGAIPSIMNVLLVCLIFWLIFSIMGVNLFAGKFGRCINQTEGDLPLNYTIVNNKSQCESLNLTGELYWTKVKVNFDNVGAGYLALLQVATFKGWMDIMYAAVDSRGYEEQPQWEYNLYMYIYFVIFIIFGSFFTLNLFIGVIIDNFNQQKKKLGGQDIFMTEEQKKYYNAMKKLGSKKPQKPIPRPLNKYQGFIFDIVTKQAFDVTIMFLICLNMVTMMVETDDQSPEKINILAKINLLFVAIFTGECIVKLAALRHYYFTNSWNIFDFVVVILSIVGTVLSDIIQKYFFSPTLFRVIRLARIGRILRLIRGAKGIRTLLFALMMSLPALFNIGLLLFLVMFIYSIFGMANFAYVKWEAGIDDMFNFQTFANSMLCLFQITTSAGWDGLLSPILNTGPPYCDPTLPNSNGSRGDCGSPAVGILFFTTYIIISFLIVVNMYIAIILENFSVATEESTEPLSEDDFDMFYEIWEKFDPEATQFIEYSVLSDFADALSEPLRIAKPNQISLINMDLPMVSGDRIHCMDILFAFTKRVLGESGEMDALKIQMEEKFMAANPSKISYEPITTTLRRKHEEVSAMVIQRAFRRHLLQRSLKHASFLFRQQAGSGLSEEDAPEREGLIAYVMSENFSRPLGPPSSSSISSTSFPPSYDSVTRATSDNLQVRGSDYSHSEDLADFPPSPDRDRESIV

CCOC(=O)c1nc2ccc(-c3ccc(OC(F)(F)F)cc3)cc2n(C)c1=O [ethyl 4-methyl-3-oxo-6-[4-(trifluoromethoxy)phenyl]-3,4-dihydroquinoxaline-2-carboxylate]
inhibition at 10 µM [1]: 49.3% | HERG 1 uM (block of hERG current) (hERG potassium channel; compound at 1 uM): 34.0% | HERG 10 uM (block of hERG current) (hERG potassium channel; compound at 10 uM): 79.5%

Source: patent US8912190B2, “Substituted heterocyclic compounds” (Gilead Sciences, Inc., priority 2008, dated 2014)
